Each compound was assayed on glioblastoma brain cancer cell line LN-229 (assay: Cytotoxicity assay (CCK8 viability)). Conditions: Homo sapiens, cytotoxicity against LN-229 cells, 18 hours incubation.
Format: cell-based
Protocol: Cytoxocity assay: Cells were seeded on a 96 well polystyrene plate in full serum media at a density of 75,000 cells per milliliter, 100 μL per well. Plates were incubated at 37° C. and 5% CO2 for 24 hours to allow cell attachment. Drug solutions were prepared in DMSO at 100× concentration and mixed 1:100 in 1% FBS media to yield the desired concentration. Drug-media mixtures were vortexed immediately prior to administration to cells. Full serum media was removed and replaced with drug-media mixtures and incubated for 18 hours. 10 μL of Cell Counting Kit 8 (CCK8, Dojindo# CK04-11) was added to each well to colormetrically assess viability. After 2-4 hours of incubation with the CCK8 dye, absorbance was read at 450 nm by a BioTek Synergy 2 plate reader.
The cytotoxicity of selected compounds against the glioblastoma brain cancer cell line LN-229 is depicted in Table 1.

In order of falling EC50:
1. C[C@@H]1CC[C@H]2[C@@H](C1)c1c(O)nc(C(C)(C)c3cccs3)nc1OC2(C)C [Compound 6e, (6aS,9R,10aR)-6,6,9-Trimethyl-3-(2-(thiophen-2-yl)propan-2-yl)-6a,7,8,9,10,10a-hexahydro-6H-isochromeno[3,4-d]pyrimidin-1-ol]  30.1 µM
2. CCCCCCC(C)(C)c1nc(O)c2c(n1)OC(C)(C)[C@H]1CC[C@@H](C)C[C@@H]21 [Compound 6b, (6aS,9R,10aR)-6,6,9-Trimethyl-3-(2-methyloctan-2-yl)-6a,7,8,9,10,10a-hexahydro-6H-isochromeno[3,4-d]pyrimidin-1-ol]  27.3 µM
3. C[C@@H]1CC[C@H]2[C@@H](C1)c1c(O)nc(C(C)(C)C3CCCCC3)nc1OC2(C)C [Compound 6d, (6aS,9R,10aR)-3-(2-Cyclohexylpropan-2-yl)-6,6,9-trimethyl-6a,7,8,9,10,10a-hexahydro-6H-isochromeno[3,4-d]pyrimidin-1-ol]  10.6 µM

Source: patent publication US8324228B2, “Pyrimidine classical cannabinoid compounds and related methods of use” (priority 2008, dated 2012)
